# According to patent publication US10119122B2, “Differentiation and expansion of endothelial cells from pluripotent stem cells and the in vitro formation of vasculature like structures” (Academisch Ziekenhuis Leiden, priority 2013, dated 2018):
# System: hPSCs
# Assay: Monolayer endothelial differentiation of hPSCs in defined medium, flow cytometry at day 10
# Assay type: cell-based, human
# Conditions: VEGF together with SB-431542 5 μM from day 3, versus VEGF only; average over several cell lines
# Source text: hiPSC lines were generated from Fib or BOECs using conditional lentiviral vectors containing the four transcription factors oct4, c-myc, Klf4 and Sox2, and characterized as described previously (Dambrot et al., 2013; Freund et al., 2008; Orlova et al., manuscript in preparation). hiPSCs and hESC (line HES-NL4; (van de Stolpe et al., 2005)) were routinely maintained on growth factor reduced MATRIGEL®-(BD, 354230) coated plates in mTeSR media (StemCell Technologies, 05850) and passaged mechanically. Differentiation was induced three days after passaging colonies by replacing mTeSR medium with the differentiation media based on BPEL (without PVA) (Ng et al., 2008) with timed addition of the following growth factors: 25 ng/ml ActivinA (Miltenyi, 130-095-547), 30 ng/ml BMP4 (Miltenyi, 130-095-549), VEGF165 (R&D Systems, 293-VE) and small molecule inhibitor CHIR99021 (Tocris, 4423). At day 3 and day 7 of differentiation, the media was refreshed with BPEL containing VEGF and 5 μM SB43152 (Tocris, 1614) only.
# Cells were dissociated with TrypLE Select and washed once with the FACs buffer with the 10% FBS, followed by the single wash with the FACs buffer. […] In some experiment samples were analyzed with the MACSQuant VYB (Miltenyi). […]
structure (smiles),measurement,value
"NC(=O)c1ccc(-c2nc(-c3ccc4c(c3)OCO4)c(-c3ccccn3)[nH]2)cc1 [SB431542, reference compound]",increase in the yield of ECs,30%
